Laboratory results from patent US11667649B2, “Heteroaromatic macrocyclic ether chemotherapeutic agents” (Nuvalent, Inc., priority 2020, dated 2023).

Tested on: TPM3-NTRK1-wt IC50 / primary target (e.g. CD74-ROS1-wt) IC50, Ba/F3 cells
Test: Cell assay TRKA selectivity (TRKA potency divided by primary target potency)
Assay type: cell-based
Conditions: for TPM3-NTRK1-wt/CD74-ROS1-G2032R: TRKA selectivity ratio: TPM3-NTRK1-wt IC50 / CD74-ROS1-G2032R IC50, Ba/F3 cells; for TPM3-NTRK1-wt/CD74-ROS1-wt: TRKA selectivity ratio: TPM3-NTRK1-wt IC50 / CD74-ROS1-wt IC50, Ba/F3 cells; for TPM3-NTRK1-wt/EML4-ALK-L1196M-G1202R: TRKA selectivity ratio: TPM3-NTRK1-wt IC50 / EML4-ALK-L1196M-G1202R IC50, Ba/F3 cells; for TPM3-NTRK1-wt/EML4-ALK-wt: TRKA selectivity ratio: TPM3-NTRK1-wt IC50 / EML4-ALK-wt IC50, Ba/F3 cells
Outline: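 IL-3-independent Ba/F3 lines stably expressing TPM3-TRKA or the primary fusion (e.g. CD74-ROS1 wt) were exposed to 3-fold compound dilutions for 72 h. Viability was read by CellTiter-Glo luminescence, with IC50 from four-parameter logistic fit. Selectivity is TPM3-NTRK1 IC50 divided by primary-target IC50, binned A (>30-fold) to D (<1).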

Row | Structure (SMILES) | TPM3-NTRK1-wt/CD74-ROS1-G2032R | TPM3-NTRK1-wt/CD74-ROS1-wt | TPM3-NTRK1-wt/EML4-ALK-L1196M-G1202R | TPM3-NTRK1-wt/EML4-ALK-wt
1 | C[C@H]1Oc2cc(cnc2N)-c2c(cnn2CC2CC2)Cc2cc(C(F)(F)F)nn2-c2ccc(F)cc21 [Example 91, (19R)-3-(cyclopropylmethyl)-16-fluoro-19-methyl-10-(trifluoromethyl)-20-oxa-3,4,11,12,23-pentaazapentacyclo[19.3.1.0^2,^6.0^8,^12.0^13,^18]pentacosa-1(24),2(6),4,8,10,13,15,17,21(25),22-decaen-22-amine] | A (bin A for very high selectivity, ratio>30-fold) | A (bin A for very high selectivity, ratio>30-fold) | A (bin A for very high selectivity, ratio>30-fold) | A (bin A for very high selectivity, ratio>30-fold)
2 | CCn1ncc2c1-c1cnc(N)c(c1)O[C@H](C)c1cc(F)ccc1-c1nn(C)c(Cl)c1C2 [Example 28, (19R)-9-chloro-3-ethyl-16-fluoro-10,19-dimethyl-20-oxa-3,4,10,11,23-pentaazapentacyclo[19.3.1.0^2,^6.0^8,^12.0^13,^18]pentacosa-1(24),2(6),4,8,11,13,15,17,21(25),22-decaen-22-amine] | A (bin A for very high selectivity, ratio>30-fold) | A (bin A for very high selectivity, ratio>30-fold) | C (bin C for moderate selectivity, ratio≥1) | A (bin A for very high selectivity, ratio>30-fold)
3 | CCn1nc(Cl)c2c1-c1cnc(N)c(c1)O[C@H](C)c1cc(F)cnc1-c1nn(C)cc1C2 [Example 142, (19R)-5-chloro-3-ethyl-16-fluoro-10,19-dimethyl-20-oxa-3,4,10,11,14,23-hexaazapentacyclo[19.3.1.0^2,^6.0^8,^12.0^13,^18]pentacosa-1(24),2(6),4,8,11,13,15,17,21(25),22-decaen-22-amine] | A (bin A for very high selectivity, ratio>30-fold) |  | B (bin B for high selectivity, ratio>10-fold) | 
4 | C[C@H]1Oc2cc(cnc2N)-c2c(C#N)nn(C)c2Cc2cn(C)nc2-c2ccc(F)cc21 [Example 21, (19R)-22-amino-16-fluoro-5,10,19-trimethyl-20-oxa-4,5,10,11,23-pentaazapentacyclo[19.3.1.0^2,^6.0^8,^12.0^13,^18]pentacosa-1(24),2(6),3,8,11,13,15,17,21(25),22-decaene-3-carbonitrile] | A (bin A for very high selectivity, ratio>30-fold) | A (bin A for very high selectivity, ratio>30-fold) | B (bin B for high selectivity, ratio>10-fold) | A (bin A for very high selectivity, ratio>30-fold)
5 | Cn1nc(C#N)c2c1Cc1cc(Cl)nn1-c1ccc(F)cc1COc1cc-2cnc1N [Example 113, 22-amino-10-chloro-16-fluoro-5-methyl-20-oxa-4,5,11,12,23-pentaazapentacyclo[19.3.1.0^2,^6.0^8,^12.0^13,^18]pentacosa-1(24),2(6),3,8,10,13,15,17,21(25),22-decaene-3-carbonitrile] | A (bin A for very high selectivity, ratio>30-fold) | A (bin A for very high selectivity, ratio>30-fold) | C (bin C for moderate selectivity, ratio≥1) | A (bin A for very high selectivity, ratio>30-fold)
6 | CCn1nnc2c1-c1cnc(N)c(c1)O[C@H](C)c1cc(F)ccc1-c1nc(C)sc1C2 [Example 78, (19R)-3-ethyl-16-fluoro-10,19-dimethyl-20-oxa-9-thia-3,4,5,11,23-pentaazapentacyclo[19.3.1.0^2,^6.0^8,^12.0^13,^18]pentacosa-1(24),2(6),4,8(12),10,13,15,17,21(25),22-decaen-22-amine] | A (bin A for very high selectivity, ratio>30-fold) | A (bin A for very high selectivity, ratio>30-fold) | B (bin B for high selectivity, ratio>10-fold) | A (bin A for very high selectivity, ratio>30-fold)
7 | C[C@H]1Oc2cc(cnc2N)-c2c(nnn2CC2CC2)Cc2cccnc2-c2ccc(F)cc21 [Example 116, (20R)-3-(cyclopropylmethyl)-17-fluoro-20-methyl-21-oxa-3,4,5,12,24-pentaazapentacyclo[20.3.1.0^2,^6.0^8,^13.0^14,^19]hexacosa-1(25),2(6),4,8(13),9,11,14,16,18,22(26),23-undecaen-23-amine] | A (bin A for very high selectivity, ratio>30-fold) | A (bin A for very high selectivity, ratio>30-fold) | A (bin A for very high selectivity, ratio>30-fold) | A (bin A for very high selectivity, ratio>30-fold)
8 | CCn1ncc2c1-c1cnc(N)c(c1)O[C@H](C)c1cc(F)ccc1-c1nn(C)cc1C2 [Example 1, (19R)-3-ethyl-16-fluoro-10,19-dimethyl-20-oxa-3,4,10,11,23-pentaazapentacyclo[19.3.1.0^2,^60^8,^12.0^13,^18]pentacosa-1(24),2(6),4,8,11,13,15,17,21(25),22-decaen-22-amine] | A (bin A for very high selectivity, ratio>30-fold) | A (bin A for very high selectivity, ratio>30-fold) | A (bin A for very high selectivity, ratio>30-fold) | A (bin A for very high selectivity, ratio>30-fold)
9 | C[C@H]1Oc2cc(cnc2N)-c2c(C#N)nn(C)c2Cc2csnc2-c2ccc(F)cc21 [Example 143, (19R)-22-amino-16-fluoro-5,19-dimethyl-20-oxa-10-thia-4,5,11,23-tetraazapentacyclo[19.3.1.0^2,^6.0^8,^12.0^13,^18]pentacosa-1(24),2(6),3,8,11,13,15,17,21(25),22-decaene-3-carbonitrile] | A (bin A for very high selectivity, ratio>30-fold) | A (bin A for very high selectivity, ratio>30-fold) | B (bin B for high selectivity, ratio>10-fold) | A (bin A for very high selectivity, ratio>30-fold)
10 | C[C@H]1Oc2cc(cnc2N)-c2c(nnn2CC2CC2)Cc2cc(Cl)nn2-c2ccc(F)cc21 [Example 108, (19R)-10-chloro-3-(cyclopropylmethyl)-16-fluoro-19-methyl-20-oxa-3,4,5,11,12,23-hexaazapentacyclo[19.3.1.0^2,^6.0^8,^12.0^13,^18]pentacosa-1(24),2(6),4,8,10,13,15,17,21(25),22-decaen-22-amine] | A (bin A for very high selectivity, ratio>30-fold) | A (bin A for very high selectivity, ratio>30-fold) | B (bin B for high selectivity, ratio>10-fold) | A (bin A for very high selectivity, ratio>30-fold)
11 | C[C@H]1Oc2cc(cnc2N)-c2c(C#N)ncn2Cc2scnc2-c2ccc(F)cc21 [Example 64, (19R)-22-amino-16-fluoro-19-methyl-20-oxa-9-thia-4,6,11,23-tetraazapentacyclo[19.3.1.0^2,^6.0^8,^12.0^13,^18]pentacosa-1(24),2,4,8(12),10,13(18),14,16,21(25),22-decaene-3-carbonitrile] | A (bin A for very high selectivity, ratio>30-fold) | A (bin A for very high selectivity, ratio>30-fold) | B (bin B for high selectivity, ratio>10-fold) | A (bin A for very high selectivity, ratio>30-fold)
12 | C[C@H]1Oc2cc(cnc2N)-c2c(CC3CC3)cnn2Cc2cccnc2-c2ccc(F)cc21 [Example 146, (20R)-3-(cyclopropylmethyl)-17-fluoro-20-methyl-21-oxa-5,6,12,24-tetraazapentacyclo[20.3.1.0^2,^6.0^8,^13.0^14,^19]hexacosa-1(25),2,4,8(13),9,11,14,16,18,22(26),23-undecaen-23-amine] | A (bin A for very high selectivity, ratio>30-fold) | A (bin A for very high selectivity, ratio>30-fold) | B (bin B for high selectivity, ratio>10-fold) | A (bin A for very high selectivity, ratio>30-fold)
13 | Cc1nn(CC2CC2)c2c1Cc1cc(C(F)F)nn1-c1ccc(F)cc1COc1cc-2cnc1N [Example 136, 3-(cyclopropylmethyl)-10-(difluoromethyl)-16-fluoro-5-methyl-20-oxa-3,4,11,12,23-pentaazapentacyclo[19.3.1.0^2,^6.0^8,^12.0^13,^18]pentacosa-1(24),2(6),4,8,10,13,15,17,21(25),22-decaen-22-amine] | A (bin A for very high selectivity, ratio>30-fold) | A (bin A for very high selectivity, ratio>30-fold) | A (bin A for very high selectivity, ratio>30-fold) | A (bin A for very high selectivity, ratio>30-fold)
14 | CCn1ncc2c1-c1cnc(N)c(c1)O[C@H](C)c1cc(F)ccc1-n1nc(F)cc1C2 [Example 71, (19R)-3-ethyl-10,16-difluoro-19-methyl-20-oxa-3,4,11,12,23-pentaazapentacyclo[19.3.1.0^2,^6.0^8,^12.0^13,^18]pentacosa-1(24),2(6),4,8,10,13,15,17,21(25),22-decaen-22-amine] | A (bin A for very high selectivity, ratio>30-fold) | B (bin B for high selectivity, ratio>10-fold) | C (bin C for moderate selectivity, ratio≥1) | B (bin B for high selectivity, ratio>10-fold)
